# Test results: patent publication US8889887B2, “Pentamethine cyanine fluorescent dyes, preparation methods and uses thereof” (Dalian University of Technology, priority 2011, dated 2014)
# Several values for one entry are separate records, joined by “and”; a condition that tells them apart may be missing. Identical values can stand only once. Counter-ions that a name gives are not always drawn.
# Columns and labels:
# Type in all cases: physicochemical
# [1] = Fluorescence lifetime in solutions with different viscosity
# Method: (§1) Firstly, DMSO solutions of 4 and 7 having a concentration of 1.0×10^−3 M were prepared, respectively. The stock solution of […] was added into 10 mL glycerol-ethanol mixture, and ultrasonicated to remove bubbles. The solution stayed for 1 hour, and then absorption and emission spectra therefore were measured by using UV-visible spectrophotometer and fluorescence spectrophotometer, and fluorescence lifetime of solution with different viscosity was detected as well. UV-visible spectrophotometer, model: Hp8453; fluorescence spectrophotometer model: FP-6500; Fluorescence lifetime equipment: Horiba Jobin Yvon Fluoromax-4-p.
# (§2) Glycerol-ethanol mixture was a mixture of glycerol and ethanol, Vglycerol: Vethanol were 1:9, 2:8, 3:7, 4:6, 5:5, 6:4, 7:3, 8:2 and 9:1.
# [2] = UV absorption and fluorescence emission spectra in different solvents; settings: for λabs1 maximum absorption wavelength / λabs2 maximum absorption wavelength / λem1 maximum emission wavelength / λem2 maximum emission wavelength: 1 μM; for Φ1 fluorescence quantum yield / Φ2 fluorescence quantum yield: reference Rhodamine B in ethanol
# Method: Firstly, stock solutions of 4 and 7 in DMSO were prepared respectively. Then sample solutions of 1 μM were prepared by diluting the mother liquors with corresponding chromatography grade solvent. UV absorption and fluorescence emission spectra of the sample solutions in different solvents were measured at room temperature, the results were shown in FIGS. 1A and 1B, respectively.
# [3] = Viscosity experiments: absorption and emission spectra in glycerol-ethanol mixtures; settings: glycerol-ethanol mixtures
# Method: as §1, §2
smiles,measurement,setting,value
"CCN1/C(=C/C=C(C=O)/C=C/C2=[N+](CC)c3ccccc3C2(C)C)C(C)(C)c2ccccc21 [compound 4, 1,5-di(1-N-ethyl-3,3-dimethyl-2,3-H-lindoline)-3-formyl-1,3,5-pentatriene chloride quaternary ammonium salt cyanine dye]",fluorescence lifetime,[1]; 99% glycerol solution,1450 ps
same,fluorescence lifetime,[1]; pure ethanol,lower than 50 ps
same,Δλ1 Stokes Shift (λem1 − λabs1),[2]; DMSO,51 nm
same,Δλ2 Stokes Shift (λem2 − λabs2),[2]; DMSO,17 nm
same,Δλ3 Stokes Shift (λem2 − λabs1),[2]; DMSO,230 nm
same,ε1 molar extinction coefficient,[2]; DMSO,15000 L/cm/mol
same,ε2 molar extinction coefficient,[2]; DMSO,108500 L/cm/mol
same,λabs1 maximum absorption wavelength,[2]; DMSO,400 nm
same,λabs2 maximum absorption wavelength,[2]; DMSO,613 nm
same,λem1 maximum emission wavelength,[2]; DMSO,451 nm
same,λem2 maximum emission wavelength,[2]; DMSO,630 nm
same,Φ1 fluorescence quantum yield,[2]; DMSO,0.0158
same,Φ2 fluorescence quantum yield,[2]; DMSO,0.0224
same,Δλ1 Stokes Shift (λem1 − λabs1),[2]; acetonitrile,54 nm
same,Δλ2 Stokes Shift (λem2 − λabs2),[2]; acetonitrile,19 nm
same,Δλ3 Stokes Shift (λem2 − λabs1),[2]; acetonitrile,229 nm
same,ε1 molar extinction coefficient,[2]; acetonitrile,11200 L/cm/mol
same,ε2 molar extinction coefficient,[2]; acetonitrile,93500 L/cm/mol
same,λabs1 maximum absorption wavelength,[2]; acetonitrile,397 nm
same,λabs2 maximum absorption wavelength,[2]; acetonitrile,607 nm
same,λem1 maximum emission wavelength,[2]; acetonitrile,451 nm
same,λem2 maximum emission wavelength,[2]; acetonitrile,626 nm
same,Φ1 fluorescence quantum yield,[2]; acetonitrile,0.0062
same,Φ2 fluorescence quantum yield,[2]; acetonitrile,0.0071
same,Δλ1 Stokes Shift (λem1 − λabs1),[2]; dichloromethane,55 nm
same,Δλ2 Stokes Shift (λem2 − λabs2),[2]; dichloromethane,29 nm
same,Δλ3 Stokes Shift (λem2 − λabs1),[2]; dichloromethane,255 nm
same,ε1 molar extinction coefficient,[2]; dichloromethane,16000 L/cm/mol
same,ε2 molar extinction coefficient,[2]; dichloromethane,89700 L/cm/mol
same,λabs1 maximum absorption wavelength,[2]; dichloromethane,399 nm
same,λabs2 maximum absorption wavelength,[2]; dichloromethane,625 nm
same,λem1 maximum emission wavelength,[2]; dichloromethane,454 nm
same,λem2 maximum emission wavelength,[2]; dichloromethane,654 nm
same,Φ1 fluorescence quantum yield,[2]; dichloromethane,0.0060
same,Φ2 fluorescence quantum yield,[2]; dichloromethane,0.0231
same,Δλ1 Stokes Shift (λem1 − λabs1),[2]; ethanol,52 nm
same,Δλ2 Stokes Shift (λem2 − λabs2),[2]; ethanol,40 nm
same,"Δλ3 Stokes Shift (λem2 − λabs1), pseudo-Stokes Shift",[2]; ethanol,254 nm
same,ε1 molar extinction coefficient,[2]; ethanol,13800 L/cm/mol
same,ε2 molar extinction coefficient,[2]; ethanol,97500 L/cm/mol
same,λabs1 maximum absorption wavelength,[2]; ethanol,399 nm
same,λabs2 maximum absorption wavelength,[2]; ethanol,613 nm
same,λem1 maximum emission wavelength,[2]; ethanol,451 nm
same,λem2 maximum emission wavelength,[2]; ethanol,653 nm
same,Φ1 fluorescence quantum yield,[2]; ethanol,0.0050
same,Φ2 fluorescence quantum yield,[2]; ethanol,0.0108
same,sensitivity to solvent polarity,[2]; low-viscosity solvents of different polarity,insensitive to solvent polarity
same,Δλ1 Stokes Shift (λem1 − λabs1),[2]; methanol,51 nm
same,Δλ2 Stokes Shift (λem2 − λabs2),[2]; methanol,42 nm
same,Δλ3 Stokes Shift (λem2 − λabs1),[2]; methanol,250 nm
same,ε1 molar extinction coefficient,[2]; methanol,14500 L/cm/mol
same,ε2 molar extinction coefficient,[2]; methanol,99300 L/cm/mol
same,λabs1 maximum absorption wavelength,[2]; methanol,400 nm
same,λabs2 maximum absorption wavelength,[2]; methanol,608 nm
same,λem1 maximum emission wavelength,[2]; methanol,451 nm
same,λem2 maximum emission wavelength,[2]; methanol,650 nm
same,Φ1 fluorescence quantum yield,[2]; methanol,0.0050
same,Φ2 fluorescence quantum yield,[2]; methanol,0.0079
same,"absorption peak, longer wavelength",[2]; solvent not stated,610 nm
same,"absorption peak, shorter wavelength",[2]; solvent not stated,400 nm
same,"emission peak, longer wavelength",[2]; solvent not stated,650 nm
same,"emission peak, shorter wavelength",[2]; solvent not stated,456 nm and 460 nm
same,Δλ1 Stokes Shift (λem1 − λabs1),[2]; water,47 nm
same,Δλ2 Stokes Shift (λem2 − λabs2),[2]; water,43 nm
same,Δλ3 Stokes Shift (λem2 − λabs1),[2]; water,230 nm
same,ε1 molar extinction coefficient,[2]; water,16800 L/cm/mol
same,ε2 molar extinction coefficient,[2]; water,62100 L/cm/mol
same,λabs1 maximum absorption wavelength,[2]; water,413 nm
same,λabs2 maximum absorption wavelength,[2]; water,600 nm
same,λem1 maximum emission wavelength,[2]; water,460 nm
same,λem2 maximum emission wavelength,[2]; water,643 nm
same,Φ1 fluorescence quantum yield,[2]; water,0.0023
same,Φ2 fluorescence quantum yield,[2]; water,0.0032
same,sensitivity of fluorescence intensity to solvent viscosity,[3],quite sensitive to solvent viscosity
